Values after ≈ are worked out from the molar mass of the structure shown. Values joined by “and” are separate entries in the source; they are usually repeats but may differ in a detail not shown here. Equal values may be shown once. Read-outs that look alike come from different tables or passages of the source.
Columns and labels:
SMARCA2^BD = biological target: T1, SMARCA2^BD (Homo sapiens, UniProt P51531); experiment: SPR binding to immobilised SMARCA2 bromodomain; conditions: benzoxazinone lead series, Fig. 1b; read-out: SMARCA2^BD SPR KD
T1 construct: P51531-2, residues 1373-1493 with additional N-terminal SM residues; GST (TEV site) (N, cleaved yes); made in house; host or cells: Escherichia coli BL21(DE3)
Description: SMARCA4^BD was provided by the Structural Genomics Consortium (SGC), Toronto[32] and SMARCA2^BD and PRM1^BD5 were synthesised by GeneArt then subcloned into pDEST15 vectors (Invitrogen). The VCB complex was expressed and purified as described previously, with the modification that 0.3 mM IPTG was used for induction of expression. […] Both were stored in 20 mM 4-(2-hydroxyethyl)−1-piperazineethanesulfonic acid (HEPES), 150 mM sodium chloride and 1 mM tris(2-carboxyethyl)phosphine (TCEP) pH 7.5. SMARCA2^BD, SMARCA4^BD and PBRM1^BD5 were expressed in Escherichia coli BL21(DE3) as N-terminal GST fusion proteins with a TEV protease cleavage site. Expression and purification of these proteins has been described previously[32],[33]. Starter cultures were grown overnight at 37 °C in 10 mL of Luria-Bertani (LB) medium with ampicillin (100 μg/mL). The starter cultures were diluted (1:100) in Terrific Broth (TB) medium with ampicillin (100 μg/mL) and grown in a shaking incubator at 37 °C to an optical density (OD600) ~1 before the temperature was lowered for induction (to 23 °C for SMARCA2^BD or 18 °C for SMARCA4^BD and PRRM1^BD5). […] Cells were harvested by centrifugation and stored at −80 °C prior to purification. […] The Lysis buffers were as follows: for SMARCA2^BD: 50 mM HEPES, 500 mM sodium chloride, 5% glycerol, 5 mM dithiothreitol (DTT); for SMARCA4^BD: 25 mM HEPES, 0.3 M sodium chloride, 5% glycerol, 10 mM DTT, pH 7.5; for PBRM1^BD5: 25 mM HEPES, 300 mM sodium chloride, 5% glycerol, 10 mM DTT, pH 7.8; in each case supplemented with complete protease inhibitors (Roche). Affinity purification was performed using Glutathione Sepharose 4B (GE Healthcare) in batch mode or on-column. […] For SMARCA2^BD, prior to TEV protease cleavage the eluted GST-tagged BD was first dialysed into desalting buffer (20 mM HEPES, 250 mM sodium chloride, pH 7.0 + 0.5% glycerol). Where TEV cleavage was performed in solution, a second affinity (GST-trap) column purification step was carried out to remove the GST-tag and uncleaved GST-tagged protein. Proteins were further purified by SEC (HiLoad Superdex-75, 16/600) (GE Healthcare) and stored in Storage buffer (for SMARCA2^BD: 20 mM HEPES, 150 mM sodium chloride, pH 7.5; for SMARCA4^BD: 10 mM HEPES, 0.5 M NaCl, 5% glycerol, pH 7.5; for PBRM1^BD5: 20 mM HEPES, 300 mM NaCl, 5 mM DTT, pH 7.8). For AlphaScreen assays, eluted GST-tagged BDs were purified directly by SEC in the respective storage buffers without TEV cleavage. All chromatography purification steps were performed either at room temperature or 4 °C using an ÄKTA FPLC purification system (GE Healthcare) or a plastic Econo-Pac column (Bio-Rad).
SPR data were acquired on Biacore 8K or T200 instruments (Cytiva). Target proteins were immobilised at 25 °C on CM5 chips by amine coupling (EDC/NHS, Cytiva) in HBS-P+ running buffer (pH 7.4), containing 2 mM TCEP. […] The reference surface was subsequently deactivated using 1 M ethanolamine. […] Biotinylated VCB was prepared as previously described[27]: in brief, the complex was mixed 1:1 with EZ-Link NHS–PEG4–biotin (Thermo Scientific) and incubated at room temperature for 1 h. Unreacted NHS-biotin was removed using a PD-10 desalting column (Cytiva) into 20 mM HEPES, pH 7.5, 150 mM sodium chloride and 1 mM DTT. The reference surface was generated by deactivating the EDC/NHS-treated surface with 1 M ethanolamine. All interaction experiments were done at 6 °C in running buffer (20 mM TRIS, pH 8.3, 150 mM potassium chloride, 2 mM magnesium chloride, 2 mM TCEP, 0.005% TWEEN 20, 1% dimethyl sulfoxide). For ternary complex measurements, a sensor chip surface with VCB immobilised was used (preparation as described above). Experiments were run in dual-inject mode with 10 µM SMARCA present during the injection and dissociation phase. Sensorgrams from reference surfaces and blank injections were subtracted from the raw data prior to data analysis using Biacore Insight software.

[1] = biological target: T2, VCB: PROTAC: SMARCA2^BD ternary complex (Homo sapiens, UniProt P51531); experiment: TR-FRET ternary complex affinity and cooperativity, SMARCA2; assay type: binding
T2 construct: P51531-2, residues 1373-1493 with additional N-terminal SM residues; GST (TEV site) (N); His6 (TEV site) (N, cleaved yes); made in house; host or cells: SMARCA2^BD: Escherichia coli BL21(DE3)

[2] = test system: VCB: PROTAC: SMARCA2^BD ternary complex; experiment: as above; assay type: binding, human; conditions: ratio TR-FRET EC50 / TR-FRET EC50 +VCB measured in the same run, SMARCA2BD
Solubility testing = assay type: physicochemical; conditions: for solubility at 24 h: buffer, kinetic from dmso stock
Description: Dilution into a 1:1 mixture of acetonitrile and water was used as reference. After 24 h, the incubations were filtrated, and the filtrate was analyzed by LC-UV.

Microsomal stability = assay type: in vitro ADME; conditions: for Mic. Stab. Human / Mic. Stab. Human QH: human liver microsomes; for Mic. Stab. Mouse / Mic. Stab. Mouse QH: mouse liver microsomes; for Mic. Stab. Rat / Mic. Stab. Rat QH: rat liver microsomes
Description: […] Reactions were terminated by addition of acetonitrile and precipitates separated by centrifugation. Compound concentrations in supernatants were measured by HPLC-MS/MS and clearance was calculated from compound half-lives using the well-stirred liver model.

[3] = Bidirectional permeability measurement in Caco-2 cells; assay type: in vitro ADME; conditions: human
Description: Bidirectional permeability of test compounds across a Caco-2 cell monolayer was measured as described[43] with a modification of preincubation time[44]: Briefly, Caco-2 cells were seeded onto Transwell inserts (#3379, Corning, Wiesbaden, Germany) at a density of 160000 cells/cm^2 and cultured in DMEM (high glucose) containing 10% fetal bovine serum for 14–21 days. Cells were incubated with culture media containing 1 µM test compound for 24 h. […] Samples were taken at different time points for up to 2 h. Test compound in the samples was quantified with LC-MS/MS. To elucidate the role of drug transporter P-gp in the transcellular transport, permeability measurement was performed in the absence and presence of the selective P-gp inhibitor zosuquidar (5 µM final concentration). Apparent permeability coefficients (Papp,AB, Papp,BA) were calculated as follows:1 Papp,AB=Q_AB/C0×s×t 2 Papp,BA=Q_BA/C0×s×t where Q is the amount of compound recovered in the receiver compartment after the incubation time t, C0 the initial compound concentration given to the donor compartment, and s the surface area of the Transwell inserts. Efflux ratio is calculated as the quotient of Papp,BA (mean of duplicate) to Papp,AB (mean of duplicate). […] In addition, Transepithelial electrical resistance (TEER) values were measured for each plate before the permeability assay. All three parameters (efflux of the reference substrates, Papp values of the low permeable compound, and TEER values) were used to ensure the quality of the assays.

[4] = biological target: VCB: PROTAC: SMARCA2^BD ternary complex (Homo sapiens, UniProt P40337+P51531); experiment: TR-FRET ternary complex affinity and cooperativity, SMARCA2; assay type: binding; parameters: P51531-2, residues 1373-1493 with additional N-terminal SM residues; GST (TEV site) (N); His6 (TEV site) (N, cleaved yes); made in house; host or cells: SMARCA2^BD: Escherichia coli BL21(DE3)
VCB: PROTAC: SMARCA2^BD ternary complex (Homo sapiens, UniProt P40337+P51531), sequence (P51531 with tags, fused parts or gaps isoform P51531-2): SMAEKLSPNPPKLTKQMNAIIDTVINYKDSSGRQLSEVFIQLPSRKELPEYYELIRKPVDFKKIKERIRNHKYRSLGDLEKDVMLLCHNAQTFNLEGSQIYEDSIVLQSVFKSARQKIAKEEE
VCB: PROTAC: SMARCA2^BD ternary complex (Homo sapiens, UniProt P40337+P51531), sequence (P40337 54-213): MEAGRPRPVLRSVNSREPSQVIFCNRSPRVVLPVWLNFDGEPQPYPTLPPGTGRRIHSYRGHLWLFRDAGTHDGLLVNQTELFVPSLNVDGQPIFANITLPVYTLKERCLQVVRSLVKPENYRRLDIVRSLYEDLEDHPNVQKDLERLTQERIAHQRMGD
VCB: PROTAC: SMARCA2^BD ternary complex (Homo sapiens, UniProt P40337+P51531), sequence (Q15369 17-112 partner): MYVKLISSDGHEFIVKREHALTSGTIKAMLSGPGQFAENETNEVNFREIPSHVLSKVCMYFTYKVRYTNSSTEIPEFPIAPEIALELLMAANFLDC
VCB: PROTAC: SMARCA2^BD ternary complex (Homo sapiens, UniProt P40337+P51531), sequence (Q15370 1-104 partner): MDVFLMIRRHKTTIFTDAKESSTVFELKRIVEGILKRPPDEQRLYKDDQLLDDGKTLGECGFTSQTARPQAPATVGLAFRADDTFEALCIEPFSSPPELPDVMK

T1 sequence (P51531 1373-1493 isoform P51531-2): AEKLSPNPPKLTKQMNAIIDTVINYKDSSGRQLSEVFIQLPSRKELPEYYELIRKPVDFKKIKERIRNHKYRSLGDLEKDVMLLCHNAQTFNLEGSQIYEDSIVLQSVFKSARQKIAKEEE
T2 sequence (P51531 with tags, fused parts or gaps isoform P51531-2): as the sequence (P51531 with tags, fused parts or gaps isoform P51531-2) above

CN1CCN(c2nc(=O)c3c(Br)cccc3o2)CC1 [R = Br]
Kd (SMARCA2^BD): 9 µM

O=c1nc2n(C3CCCC3)c3cc(C4CCNCC4)ccc3n2c2cccc(Br)c12 [compound 4]
EC50 ([1]; SMARCA2 BD EC50, binary, PROTAC alone, individual replicates): 0.0884 µM
EC50 ([1]; TR-FRET SMARCA2BD EC50, TR-FRET competition for SMARCA2BD, without VCB, mean ± SD): 0.088 µM
cooperativity α (SMARCA2BD) [2]: 1.2
solubility at 24 h (Solubility testing; pH 4.5, aqueous buffer, pH 4.5, read-out: Solubility pH 4.5): 85 µg/mL (≈ 183 µM)
solubility at 24 h (Solubility testing; pH 6.8, aqueous buffer, pH 6.8, read-out: Solubility pH 6.8): 79 µg/mL (≈ 170 µM)
Mic. Stab. Human (Microsomal stability): <24 % QH
Mic. Stab. Human QH (Microsomal stability): <24.400%
Mic. Stab. Mouse (Microsomal stability): <24 % QH
Mic. Stab. Mouse QH (Microsomal stability): 25.670%
Mic. Stab. Rat (Microsomal stability): <23 % QH
Mic. Stab. Rat QH (Microsomal stability): <23.080%
Papp A→B at 1 µM ([3]; Caco-2, pH 7.4, Caco-2, a to b, read-out: Caco-2 Pab): 2.55 ×10⁻⁶ cm/s
Papp B→A at 1 µM ([3]; Caco-2, pH 7.4, Caco-2, b to a, read-out: Caco-2 Pba): 32.6 ×10⁻⁶ cm/s
efflux ratio at 2 h, 1 µM ([3]; Caco-2, pH 7.4, Caco-2, read-out: Caco-2 Efflux ratio): 12.8
EC50 ([4]; TR-FRET Ternary SMARCA2BD EC50 (PROTAC + VCB), TR-FRET competition for SMARCA2BD, + VCB, mean ± SD): 0.074 µM
EC50 ([4]; Ternary SMARCA2 BD EC50 (PROTAC + VCB), PROTAC + VCB, individual replicates): 0.0735 µM

CN1CCN(c2nc(=O)c3c(Cl)cccc3o2)CC1 [R = Cl]
Kd (SMARCA2^BD): 25 µM

CN1CCN(c2nc(=O)c3ccccc3o2)CC1 [R = H]
Kd (SMARCA2^BD): > 25 µM

CN1CCN(c2nc(=O)c3c(F)cccc3o2)CC1 [R = F]
Kd (SMARCA2^BD): > 25 µM

Cc1ncsc1-c1ccc([C@@H](COCCN2CCC(c3ccc4c(c3)n(C3CCCC3)c3nc(=O)c5c(Br)cccc5n43)CC2)NC(=O)[C@@H]2C[C@@H](O)CN2C(=O)[C@@H](NC(=O)C2(F)CC2)C(C)(C)C)cc1 [compound 24]
Solubility pH 4.5 (Solubility testing; pH 4.5): <1.000 <1.000 ug/mL
Solubility pH 6.8 (Solubility testing; pH 6.8): <1.000 <1.000 ug/mL
Mic. Stab. Human (Microsomal stability): 59 ± 0.4 % QH
Mic. Stab. Human QH (Microsomal stability): 59.130% and 58.510%
Mic. Stab. Mouse (Microsomal stability): 40 ± 2 % QH
Mic. Stab. Mouse QH (Microsomal stability): 38.210% and 41.130%
Mic. Stab. Rat (Microsomal stability): 31 % QH
Mic. Stab. Rat QH (Microsomal stability): < 23.080% and 30.780%

CN1CCN(c2nc(=O)c3c(I)cccc3o2)CC1 [R = I]
Kd (SMARCA2^BD): 18 µM
